According to ChEMBL document CHEMBL1145498, “A systematic interaction map of validated kinase inhibitors with Ser/Thr kinases” (Proc Natl Acad Sci U S A, 2007):

Each compound was assayed against Calcium/calmodulin-dependent protein kinase type 1G (Homo sapiens) (UniProt Q96NX5).

Going from `O=c1c2ccccc2[nH]c(=S)n1CCN1CCC(=C(c2ccc(F)cc2)c2ccc(F)cc2)CC1` [DIACYLGLYCEROL KINASE INHIBITOR II] to `C[C@@H]1C[C@H]2O[C@@H]2/C=C\C=C\C(=O)Cc2c(Cl)c(O)cc(O)c2C(=O)O1` [RADICICOL], the ΔTm rises from 0.1 °C to 0.6 °C.

Work on `Brc1c(Br)c(Br)c2[nH]nnc2c1Br` [TETRABROMOBENZOTRIAZOLE] yielded a ΔTm of -0.7 °C.

What follows are compounds tested against Calcium/calmodulin-dependent protein kinase type II subunit alpha (Homo sapiens) (UniProt Q9UQM7).
Chain of Calcium/calmodulin-dependent protein kinase type II subunit alpha (Homo sapiens) (Q9UQM7 whole entry): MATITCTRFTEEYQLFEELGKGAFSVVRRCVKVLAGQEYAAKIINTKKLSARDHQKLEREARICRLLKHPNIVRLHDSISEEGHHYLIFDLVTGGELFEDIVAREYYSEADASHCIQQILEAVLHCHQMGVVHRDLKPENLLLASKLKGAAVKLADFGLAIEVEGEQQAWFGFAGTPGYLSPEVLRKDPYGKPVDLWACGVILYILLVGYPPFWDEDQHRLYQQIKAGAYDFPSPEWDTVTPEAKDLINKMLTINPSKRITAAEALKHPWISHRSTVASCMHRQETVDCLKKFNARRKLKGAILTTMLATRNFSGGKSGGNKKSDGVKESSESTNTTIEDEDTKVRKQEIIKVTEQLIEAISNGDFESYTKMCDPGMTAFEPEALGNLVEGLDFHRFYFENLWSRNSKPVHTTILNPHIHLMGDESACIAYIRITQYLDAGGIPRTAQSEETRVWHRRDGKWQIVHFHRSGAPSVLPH

Compared with `O=c1c2ccccc2[nH]c(=S)n1CCN1CCC(=C(c2ccc(F)cc2)c2ccc(F)cc2)CC1` [DIACYLGLYCEROL KINASE INHIBITOR II], `C[C@@H]1C[C@H]2O[C@@H]2/C=C\C=C\C(=O)Cc2c(Cl)c(O)cc(O)c2C(=O)O1` [RADICICOL] is higher in ΔTm: -0.6 °C for the first, 0 °C for the second.

Compound `Brc1c(Br)c(Br)c2[nH]nnc2c1Br` [TETRABROMOBENZOTRIAZOLE] has a ΔTm of 1.2 °C.

The compounds below were run against Calcium/calmodulin-dependent protein kinase type II subunit beta (Homo sapiens) (UniProt Q13554).

Compared with `O=c1c2ccccc2[nH]c(=S)n1CCN1CCC(=C(c2ccc(F)cc2)c2ccc(F)cc2)CC1` [DIACYLGLYCEROL KINASE INHIBITOR II], `C[C@@H]1C[C@H]2O[C@@H]2/C=C\C=C\C(=O)Cc2c(Cl)c(O)cc(O)c2C(=O)O1` [RADICICOL] is higher in ΔTm: -1 °C for the first, 0.1 °C for the second.

For `Brc1c(Br)c(Br)c2[nH]nnc2c1Br` [TETRABROMOBENZOTRIAZOLE], the ΔTm was 1.2 °C.

What follows are compounds tested against Calcium/calmodulin-dependent protein kinase type II subunit delta (Homo sapiens) (UniProt Q13557).

Going from `O=c1c2ccccc2[nH]c(=S)n1CCN1CCC(=C(c2ccc(F)cc2)c2ccc(F)cc2)CC1` [DIACYLGLYCEROL KINASE INHIBITOR II] to `C[C@@H]1C[C@H]2O[C@@H]2/C=C\C=C\C(=O)Cc2c(Cl)c(O)cc(O)c2C(=O)O1` [RADICICOL], the ΔTm rises from -5.4 °C to -0.4 °C.

For `Brc1c(Br)c(Br)c2[nH]nnc2c1Br` [TETRABROMOBENZOTRIAZOLE], the ΔTm was -0.7 °C.

What follows are compounds tested against Calcium/calmodulin-dependent protein kinase type II subunit gamma (Homo sapiens) (UniProt Q13555).

First: O=c1c2ccccc2[nH]c(=S)n1CCN1CCC(=C(c2ccc(F)cc2)c2ccc(F)cc2)CC1 [DIACYLGLYCEROL KINASE INHIBITOR II]
Second: C[C@@H]1C[C@H]2O[C@@H]2/C=C\C=C\C(=O)Cc2c(Cl)c(O)cc(O)c2C(=O)O1 [RADICICOL]
The ΔTm of the first is lower: -0.5 °C for the first, 0 °C for the second.

For `Brc1c(Br)c(Br)c2[nH]nnc2c1Br` [TETRABROMOBENZOTRIAZOLE], the ΔTm was 0.6 °C.

What follows are compounds tested against Dual specificity protein kinase CLK2 (Homo sapiens) (UniProt P49760).

Compared with `O=c1c2ccccc2[nH]c(=S)n1CCN1CCC(=C(c2ccc(F)cc2)c2ccc(F)cc2)CC1` [DIACYLGLYCEROL KINASE INHIBITOR II], `C[C@@H]1C[C@H]2O[C@@H]2/C=C\C=C\C(=O)Cc2c(Cl)c(O)cc(O)c2C(=O)O1` [RADICICOL] is lower in ΔTm: 0.3 °C for the first, 0.1 °C for the second.

In the case of `Brc1c(Br)c(Br)c2[nH]nnc2c1Br` [TETRABROMOBENZOTRIAZOLE], the ΔTm is reported as 2.4 °C.

These compounds were tested against Dual specificity protein kinase CLK3 (Homo sapiens) (UniProt P49761).
Chain of Dual specificity protein kinase CLK3 (Homo sapiens) (P49761 whole entry, looked up): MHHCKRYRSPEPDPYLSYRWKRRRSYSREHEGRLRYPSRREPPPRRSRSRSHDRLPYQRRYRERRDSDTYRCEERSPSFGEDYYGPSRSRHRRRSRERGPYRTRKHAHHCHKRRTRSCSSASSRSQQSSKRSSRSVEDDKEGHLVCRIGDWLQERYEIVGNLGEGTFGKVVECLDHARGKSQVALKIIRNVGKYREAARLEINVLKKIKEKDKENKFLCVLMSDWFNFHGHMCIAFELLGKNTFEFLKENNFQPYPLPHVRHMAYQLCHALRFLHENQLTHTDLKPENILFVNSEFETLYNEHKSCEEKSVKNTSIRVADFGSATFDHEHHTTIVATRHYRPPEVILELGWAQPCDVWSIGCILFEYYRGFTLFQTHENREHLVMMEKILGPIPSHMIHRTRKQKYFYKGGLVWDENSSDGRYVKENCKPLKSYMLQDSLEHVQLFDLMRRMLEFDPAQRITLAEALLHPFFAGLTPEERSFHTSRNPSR

First: O=c1c2ccccc2[nH]c(=S)n1CCN1CCC(=C(c2ccc(F)cc2)c2ccc(F)cc2)CC1 [DIACYLGLYCEROL KINASE INHIBITOR II]
Second: C[C@@H]1C[C@H]2O[C@@H]2/C=C\C=C\C(=O)Cc2c(Cl)c(O)cc(O)c2C(=O)O1 [RADICICOL]
The ΔTm of the first is higher: 0.2 °C for the first, 0 °C for the second.

`Brc1c(Br)c(Br)c2[nH]nnc2c1Br` [TETRABROMOBENZOTRIAZOLE] showed a ΔTm of 2 °C.

Each compound was assayed against Casein kinase I isoform gamma-1 (Homo sapiens) (UniProt Q9HCP0).
Chain of Casein kinase I isoform gamma-1 (Homo sapiens) (Q9HCP0 whole entry, looked up, canonical isoform): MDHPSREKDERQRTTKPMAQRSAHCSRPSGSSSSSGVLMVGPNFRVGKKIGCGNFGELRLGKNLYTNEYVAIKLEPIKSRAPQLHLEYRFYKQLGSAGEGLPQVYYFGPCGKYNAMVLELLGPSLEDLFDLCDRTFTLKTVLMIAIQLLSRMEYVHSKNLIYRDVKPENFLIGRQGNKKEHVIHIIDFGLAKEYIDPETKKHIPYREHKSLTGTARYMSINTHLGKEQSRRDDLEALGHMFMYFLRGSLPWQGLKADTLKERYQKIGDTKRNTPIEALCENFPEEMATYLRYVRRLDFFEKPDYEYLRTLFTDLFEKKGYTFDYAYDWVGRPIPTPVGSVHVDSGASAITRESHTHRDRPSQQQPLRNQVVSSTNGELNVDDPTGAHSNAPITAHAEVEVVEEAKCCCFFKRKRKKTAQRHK

Compared with `O=c1c2ccccc2[nH]c(=S)n1CCN1CCC(=C(c2ccc(F)cc2)c2ccc(F)cc2)CC1` [DIACYLGLYCEROL KINASE INHIBITOR II], `C[C@@H]1C[C@H]2O[C@@H]2/C=C\C=C\C(=O)Cc2c(Cl)c(O)cc(O)c2C(=O)O1` [RADICICOL] is higher in ΔTm: -0.2 °C for the first, 0.3 °C for the second.

In the case of `Brc1c(Br)c(Br)c2[nH]nnc2c1Br` [TETRABROMOBENZOTRIAZOLE], the ΔTm is reported as -0.4 °C.

The compounds below were run against Death-associated protein kinase 3 (Homo sapiens) (UniProt O43293).

Compared with `O=c1c2ccccc2[nH]c(=S)n1CCN1CCC(=C(c2ccc(F)cc2)c2ccc(F)cc2)CC1` [DIACYLGLYCEROL KINASE INHIBITOR II], `C[C@@H]1C[C@H]2O[C@@H]2/C=C\C=C\C(=O)Cc2c(Cl)c(O)cc(O)c2C(=O)O1` [RADICICOL] is lower in ΔTm: 1.6 °C for the first, -0.3 °C for the second.

`Brc1c(Br)c(Br)c2[nH]nnc2c1Br` [TETRABROMOBENZOTRIAZOLE] gave a ΔTm of 3.6 °C.

The compounds below were run against T1, Myotonin-protein kinase (Homo sapiens) (UniProt Q09013).
T1 sequence (whole entry): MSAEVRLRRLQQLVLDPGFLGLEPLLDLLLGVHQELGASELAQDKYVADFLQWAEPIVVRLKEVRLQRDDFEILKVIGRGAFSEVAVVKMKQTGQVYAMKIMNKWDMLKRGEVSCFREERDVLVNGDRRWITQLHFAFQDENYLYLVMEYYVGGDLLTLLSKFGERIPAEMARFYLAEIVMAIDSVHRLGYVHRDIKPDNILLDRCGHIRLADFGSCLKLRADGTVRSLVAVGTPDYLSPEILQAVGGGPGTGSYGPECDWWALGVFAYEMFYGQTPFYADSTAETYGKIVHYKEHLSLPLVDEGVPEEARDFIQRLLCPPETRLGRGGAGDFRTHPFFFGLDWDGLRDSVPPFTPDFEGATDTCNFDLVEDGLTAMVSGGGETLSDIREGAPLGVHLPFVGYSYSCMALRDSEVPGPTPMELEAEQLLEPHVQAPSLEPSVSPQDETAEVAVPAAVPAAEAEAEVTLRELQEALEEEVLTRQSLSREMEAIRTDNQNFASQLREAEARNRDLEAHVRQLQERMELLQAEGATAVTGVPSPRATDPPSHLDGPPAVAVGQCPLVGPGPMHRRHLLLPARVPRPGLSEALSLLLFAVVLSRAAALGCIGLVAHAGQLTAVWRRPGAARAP

First: O=c1c2ccccc2[nH]c(=S)n1CCN1CCC(=C(c2ccc(F)cc2)c2ccc(F)cc2)CC1 [DIACYLGLYCEROL KINASE INHIBITOR II]
Second: C[C@@H]1C[C@H]2O[C@@H]2/C=C\C=C\C(=O)Cc2c(Cl)c(O)cc(O)c2C(=O)O1 [RADICICOL]
The ΔTm of the first is higher: -0.7 °C for the first, -0.9 °C for the second.

With `Brc1c(Br)c(Br)c2[nH]nnc2c1Br` [TETRABROMOBENZOTRIAZOLE] the ΔTm was 1.1 °C.

These compounds were tested against Dual specificity mitogen-activated protein kinase kinase 2 (Homo sapiens, UniProt P36507).

Going from `O=c1c2ccccc2[nH]c(=S)n1CCN1CCC(=C(c2ccc(F)cc2)c2ccc(F)cc2)CC1` [DIACYLGLYCEROL KINASE INHIBITOR II] to `C[C@@H]1C[C@H]2O[C@@H]2/C=C\C=C\C(=O)Cc2c(Cl)c(O)cc(O)c2C(=O)O1` [RADICICOL], the ΔTm falls from 0.3 °C to 0 °C.

Work on `Brc1c(Br)c(Br)c2[nH]nnc2c1Br` [TETRABROMOBENZOTRIAZOLE] yielded a ΔTm of 1.6 °C.

What follows are compounds tested against T2, Dual specificity mitogen-activated protein kinase kinase 6 (Homo sapiens) (UniProt P52564).
T2 sequence (whole entry): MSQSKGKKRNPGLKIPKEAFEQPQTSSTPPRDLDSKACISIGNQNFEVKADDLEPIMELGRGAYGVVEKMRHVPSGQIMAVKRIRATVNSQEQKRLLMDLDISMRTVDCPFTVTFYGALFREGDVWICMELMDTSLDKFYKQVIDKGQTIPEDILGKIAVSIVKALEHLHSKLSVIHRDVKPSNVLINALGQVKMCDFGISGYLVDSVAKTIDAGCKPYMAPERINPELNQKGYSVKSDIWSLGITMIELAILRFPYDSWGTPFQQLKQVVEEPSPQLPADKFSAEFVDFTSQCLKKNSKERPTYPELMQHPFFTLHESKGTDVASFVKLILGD

Going from `O=c1c2ccccc2[nH]c(=S)n1CCN1CCC(=C(c2ccc(F)cc2)c2ccc(F)cc2)CC1` [DIACYLGLYCEROL KINASE INHIBITOR II] to `C[C@@H]1C[C@H]2O[C@@H]2/C=C\C=C\C(=O)Cc2c(Cl)c(O)cc(O)c2C(=O)O1` [RADICICOL], the ΔTm falls from 0.4 °C to 0 °C.

With `Brc1c(Br)c(Br)c2[nH]nnc2c1Br` [TETRABROMOBENZOTRIAZOLE] the ΔTm was 2.4 °C.

The compounds below were run against Mitogen-activated protein kinase 3 (Homo sapiens, UniProt P27361).
Chain of Mitogen-activated protein kinase 3 (P27361 whole entry): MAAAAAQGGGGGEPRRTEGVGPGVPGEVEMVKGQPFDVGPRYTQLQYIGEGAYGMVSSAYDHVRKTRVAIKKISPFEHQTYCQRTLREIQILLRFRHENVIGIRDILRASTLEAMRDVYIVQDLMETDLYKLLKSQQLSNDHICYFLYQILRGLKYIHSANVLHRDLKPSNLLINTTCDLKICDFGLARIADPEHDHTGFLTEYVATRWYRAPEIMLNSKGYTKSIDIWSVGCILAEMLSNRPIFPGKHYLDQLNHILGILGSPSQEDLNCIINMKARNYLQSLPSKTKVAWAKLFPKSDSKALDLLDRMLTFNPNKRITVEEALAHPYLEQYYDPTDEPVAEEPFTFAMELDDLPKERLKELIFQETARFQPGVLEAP

First: O=c1c2ccccc2[nH]c(=S)n1CCN1CCC(=C(c2ccc(F)cc2)c2ccc(F)cc2)CC1 [DIACYLGLYCEROL KINASE INHIBITOR II]
Second: C[C@@H]1C[C@H]2O[C@@H]2/C=C\C=C\C(=O)Cc2c(Cl)c(O)cc(O)c2C(=O)O1 [RADICICOL]
The ΔTm of the first is higher: 0.2 °C for the first, 0 °C for the second.

In the case of `Brc1c(Br)c(Br)c2[nH]nnc2c1Br` [TETRABROMOBENZOTRIAZOLE], the ΔTm is reported as 0 °C.

What follows are compounds tested against Mitogen-activated protein kinase 6 (Homo sapiens) (UniProt Q16659).
Chain of Mitogen-activated protein kinase 6 (Homo sapiens) (Q16659 whole entry): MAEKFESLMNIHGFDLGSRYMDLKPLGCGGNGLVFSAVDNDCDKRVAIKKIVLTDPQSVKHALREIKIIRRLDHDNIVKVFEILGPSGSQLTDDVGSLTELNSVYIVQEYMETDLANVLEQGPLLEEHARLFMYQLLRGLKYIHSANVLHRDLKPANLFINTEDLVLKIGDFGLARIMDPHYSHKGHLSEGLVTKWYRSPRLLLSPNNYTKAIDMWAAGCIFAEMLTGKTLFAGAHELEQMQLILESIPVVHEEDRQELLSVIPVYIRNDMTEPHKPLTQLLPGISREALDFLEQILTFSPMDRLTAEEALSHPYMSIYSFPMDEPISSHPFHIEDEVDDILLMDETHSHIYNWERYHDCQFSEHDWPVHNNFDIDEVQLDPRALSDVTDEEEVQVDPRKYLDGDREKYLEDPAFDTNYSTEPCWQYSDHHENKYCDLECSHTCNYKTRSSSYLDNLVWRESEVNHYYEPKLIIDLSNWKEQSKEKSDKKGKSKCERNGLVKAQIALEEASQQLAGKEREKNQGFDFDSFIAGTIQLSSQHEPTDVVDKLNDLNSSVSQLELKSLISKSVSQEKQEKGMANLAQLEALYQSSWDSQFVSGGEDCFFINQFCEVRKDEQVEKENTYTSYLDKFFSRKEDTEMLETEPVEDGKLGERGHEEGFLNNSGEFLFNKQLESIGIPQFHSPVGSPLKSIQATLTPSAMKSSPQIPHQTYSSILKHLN

Going from `O=c1c2ccccc2[nH]c(=S)n1CCN1CCC(=C(c2ccc(F)cc2)c2ccc(F)cc2)CC1` [DIACYLGLYCEROL KINASE INHIBITOR II] to `C[C@@H]1C[C@H]2O[C@@H]2/C=C\C=C\C(=O)Cc2c(Cl)c(O)cc(O)c2C(=O)O1` [RADICICOL], the ΔTm rises from -0.1 °C to 0.4 °C.

Compound `Brc1c(Br)c(Br)c2[nH]nnc2c1Br` [TETRABROMOBENZOTRIAZOLE] has a ΔTm of -0.2 °C.

What follows are compounds tested against Serine/threonine-protein kinase OSR1 (Homo sapiens) (UniProt O95747).
Chain of Serine/threonine-protein kinase OSR1 (Homo sapiens) (O95747 2-527 limits assumed): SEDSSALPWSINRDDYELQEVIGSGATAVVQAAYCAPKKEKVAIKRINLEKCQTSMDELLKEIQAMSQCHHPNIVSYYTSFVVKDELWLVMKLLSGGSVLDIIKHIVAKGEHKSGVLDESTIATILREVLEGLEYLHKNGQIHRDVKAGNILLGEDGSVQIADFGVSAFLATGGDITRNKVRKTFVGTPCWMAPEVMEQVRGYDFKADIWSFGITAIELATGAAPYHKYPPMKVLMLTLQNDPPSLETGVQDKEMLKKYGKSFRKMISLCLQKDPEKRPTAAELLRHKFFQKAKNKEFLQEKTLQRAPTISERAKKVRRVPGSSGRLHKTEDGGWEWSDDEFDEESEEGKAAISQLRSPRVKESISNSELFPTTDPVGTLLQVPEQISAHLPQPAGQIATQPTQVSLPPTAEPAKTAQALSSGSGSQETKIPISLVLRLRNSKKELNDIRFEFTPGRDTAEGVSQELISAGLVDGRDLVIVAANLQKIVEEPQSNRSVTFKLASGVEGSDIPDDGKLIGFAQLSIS

Compared with `O=c1c2ccccc2[nH]c(=S)n1CCN1CCC(=C(c2ccc(F)cc2)c2ccc(F)cc2)CC1` [DIACYLGLYCEROL KINASE INHIBITOR II], `C[C@@H]1C[C@H]2O[C@@H]2/C=C\C=C\C(=O)Cc2c(Cl)c(O)cc(O)c2C(=O)O1` [RADICICOL] is lower in ΔTm: 2.4 °C for the first, 1.4 °C for the second.

In the case of `Brc1c(Br)c(Br)c2[nH]nnc2c1Br` [TETRABROMOBENZOTRIAZOLE], the ΔTm is reported as 2.1 °C.

Each compound was assayed against Serine/threonine-protein kinase PLK1 (Homo sapiens) (UniProt P53350).
Chain of Serine/threonine-protein kinase PLK1 (Homo sapiens) (P53350 whole entry): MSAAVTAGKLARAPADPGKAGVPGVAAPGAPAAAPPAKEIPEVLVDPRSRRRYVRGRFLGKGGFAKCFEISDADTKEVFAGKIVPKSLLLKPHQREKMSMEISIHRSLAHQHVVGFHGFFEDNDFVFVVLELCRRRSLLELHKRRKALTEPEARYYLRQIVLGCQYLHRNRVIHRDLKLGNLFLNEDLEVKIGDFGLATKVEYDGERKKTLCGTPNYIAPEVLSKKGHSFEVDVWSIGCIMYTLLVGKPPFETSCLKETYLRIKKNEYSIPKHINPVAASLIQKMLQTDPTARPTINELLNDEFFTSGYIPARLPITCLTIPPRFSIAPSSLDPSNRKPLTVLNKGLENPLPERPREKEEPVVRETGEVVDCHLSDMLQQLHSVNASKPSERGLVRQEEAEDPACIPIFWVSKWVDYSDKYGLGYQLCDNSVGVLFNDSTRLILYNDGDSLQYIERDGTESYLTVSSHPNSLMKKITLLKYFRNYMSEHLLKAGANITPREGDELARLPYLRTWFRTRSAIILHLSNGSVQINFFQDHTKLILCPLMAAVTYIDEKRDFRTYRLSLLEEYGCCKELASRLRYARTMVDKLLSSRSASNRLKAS

Compared with `O=c1c2ccccc2[nH]c(=S)n1CCN1CCC(=C(c2ccc(F)cc2)c2ccc(F)cc2)CC1` [DIACYLGLYCEROL KINASE INHIBITOR II], `C[C@@H]1C[C@H]2O[C@@H]2/C=C\C=C\C(=O)Cc2c(Cl)c(O)cc(O)c2C(=O)O1` [RADICICOL] is lower in ΔTm: 0.6 °C for the first, 0.2 °C for the second.

`Brc1c(Br)c(Br)c2[nH]nnc2c1Br` [TETRABROMOBENZOTRIAZOLE] was tested, and the ΔTm was 2.3 °C.

What follows are compounds tested against TRAF2 and NCK-interacting protein kinase (Homo sapiens) (UniProt Q9UKE5).
Chain of TRAF2 and NCK-interacting protein kinase (Homo sapiens) (Q9UKE5 whole entry, looked up): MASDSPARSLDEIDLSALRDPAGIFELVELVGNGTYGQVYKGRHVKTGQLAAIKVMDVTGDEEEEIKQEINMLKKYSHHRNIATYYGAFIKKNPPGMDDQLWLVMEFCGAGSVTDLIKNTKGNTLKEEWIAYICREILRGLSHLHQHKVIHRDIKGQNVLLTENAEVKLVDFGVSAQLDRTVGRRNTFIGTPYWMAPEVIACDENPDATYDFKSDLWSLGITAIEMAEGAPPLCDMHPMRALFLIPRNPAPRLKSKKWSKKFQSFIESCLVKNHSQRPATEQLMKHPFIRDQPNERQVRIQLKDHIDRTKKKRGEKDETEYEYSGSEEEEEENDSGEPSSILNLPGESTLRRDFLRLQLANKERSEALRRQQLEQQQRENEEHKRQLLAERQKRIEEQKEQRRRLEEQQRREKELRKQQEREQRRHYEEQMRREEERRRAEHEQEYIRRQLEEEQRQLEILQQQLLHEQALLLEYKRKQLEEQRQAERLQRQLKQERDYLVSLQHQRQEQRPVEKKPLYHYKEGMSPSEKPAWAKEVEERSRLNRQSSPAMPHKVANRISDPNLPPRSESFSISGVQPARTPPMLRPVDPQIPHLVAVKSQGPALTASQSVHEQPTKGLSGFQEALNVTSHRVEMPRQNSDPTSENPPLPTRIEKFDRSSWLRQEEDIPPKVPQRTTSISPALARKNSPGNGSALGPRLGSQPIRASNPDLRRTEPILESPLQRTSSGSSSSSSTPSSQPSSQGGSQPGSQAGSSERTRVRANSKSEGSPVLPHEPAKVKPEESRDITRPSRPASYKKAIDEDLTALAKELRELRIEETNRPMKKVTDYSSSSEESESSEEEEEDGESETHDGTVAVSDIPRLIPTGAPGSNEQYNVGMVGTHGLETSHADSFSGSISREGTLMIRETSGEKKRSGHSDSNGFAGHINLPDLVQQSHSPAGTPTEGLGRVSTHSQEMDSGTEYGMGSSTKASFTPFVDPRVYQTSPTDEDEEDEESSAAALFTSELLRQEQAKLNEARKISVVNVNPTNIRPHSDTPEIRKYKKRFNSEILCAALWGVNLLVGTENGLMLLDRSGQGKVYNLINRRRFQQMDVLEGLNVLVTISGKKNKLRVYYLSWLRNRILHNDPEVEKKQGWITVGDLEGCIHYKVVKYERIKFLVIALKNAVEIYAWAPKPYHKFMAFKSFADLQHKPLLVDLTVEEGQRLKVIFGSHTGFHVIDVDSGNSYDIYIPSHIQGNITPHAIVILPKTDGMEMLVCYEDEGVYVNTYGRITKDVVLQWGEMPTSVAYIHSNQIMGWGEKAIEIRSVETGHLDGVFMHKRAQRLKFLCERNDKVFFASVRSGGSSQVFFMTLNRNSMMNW

Going from `O=c1c2ccccc2[nH]c(=S)n1CCN1CCC(=C(c2ccc(F)cc2)c2ccc(F)cc2)CC1` [DIACYLGLYCEROL KINASE INHIBITOR II] to `C[C@@H]1C[C@H]2O[C@@H]2/C=C\C=C\C(=O)Cc2c(Cl)c(O)cc(O)c2C(=O)O1` [RADICICOL], the ΔTm falls from 0 °C to -0.3 °C.

`Brc1c(Br)c(Br)c2[nH]nnc2c1Br` [TETRABROMOBENZOTRIAZOLE] was tested, and the ΔTm was -0.8 °C.

The compounds below were run against T3, Serine/threonine-protein kinase VRK1 (Homo sapiens) (UniProt Q99986).
T3 sequence (whole entry): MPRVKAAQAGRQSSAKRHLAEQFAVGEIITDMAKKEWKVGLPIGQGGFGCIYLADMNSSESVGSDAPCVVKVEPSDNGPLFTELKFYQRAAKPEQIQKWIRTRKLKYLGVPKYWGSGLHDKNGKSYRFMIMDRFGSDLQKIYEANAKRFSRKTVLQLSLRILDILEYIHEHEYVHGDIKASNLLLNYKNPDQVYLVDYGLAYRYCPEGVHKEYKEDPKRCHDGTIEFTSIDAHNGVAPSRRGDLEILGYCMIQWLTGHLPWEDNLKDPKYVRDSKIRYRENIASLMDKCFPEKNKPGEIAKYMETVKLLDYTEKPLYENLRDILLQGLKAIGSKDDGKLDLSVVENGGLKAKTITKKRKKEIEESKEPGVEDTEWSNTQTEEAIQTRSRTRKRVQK

`O=c1c2ccccc2[nH]c(=S)n1CCN1CCC(=C(c2ccc(F)cc2)c2ccc(F)cc2)CC1` [DIACYLGLYCEROL KINASE INHIBITOR II] and `C[C@@H]1C[C@H]2O[C@@H]2/C=C\C=C\C(=O)Cc2c(Cl)c(O)cc(O)c2C(=O)O1` [RADICICOL] are the same in ΔTm: -0.2 °C for the first, -0.2 °C for the second.

`Brc1c(Br)c(Br)c2[nH]nnc2c1Br` [TETRABROMOBENZOTRIAZOLE] was tested, and the ΔTm was -1.5 °C.
